Experimental data from patent US20060154903A1, “Betulinol derivatives as anti-cancer agents” (priority 2004, published 2006).
Where two headings read alike, the source gives them in different places.

Columns and labels:
184B5/HER = experiment: In vitro cytotoxicity, Breast (1), 184B5/HER; assay type: cell-based; conditions: 1 × 10^−4 M
DU-145 = experiment: Anchorage-independence growth assay in soft agar, DU-145; assay type: cell-based; conditions: Homo sapiens, 336 h, 1 × 10^−5 M, 14 days, read-out: Inhibition % on Anchorage-independent Growth
Description: (§1) Anchorage-independence growth assay was performed to determine the ability of cancer cells to form colonies in soft agar. 1.0×10^4 cancer cells were suspended in 2 ml of DMEM medium containing 0.33% agar in the presence or absence of betulinol derivatives. The compounds were overlaid on a 2 ml matrix made up of 0.6% agar. The cultures were incubated at 37° C. in a humidified environment under 5% CO2 for 14 days without medium change. The cultures were fixed in Comoy's fixative (acetic acid/100% ethanol 1:3 v/v) and the numbers of anchorage-independent, tridimentional colonies (≧40 μm diameter) formed were counted under 10× magnification (Katdare et al., Cancer Lett. 111:141-47 (1997), which is hereby incorporated by reference in its entirety).

[1] = system: human fibroblast cell line; assay type: cell-based; conditions: Fibroblasts; for Percent Killed: Prostate (1); for Growth Inhibition %: 1 × 10^−5
Description: (§2) The human prostate cancer LNCaP, PC-3, and DU-145 cell lines, as well as human fibroblast cell line, were obtained from the American Type Culture Collection (“ATCC”) and maintained in RPMI-1640, F-12k, and MEM mediums, respectively, supplemented with 10% FBS. Cell lines were maintained at 37° C. under a humidified atmosphere and 5% CO2 for testing of the cytotoxicity of betulinol derivatives. The cytotoxicity assay was performed using MTT assay according to the instructions of ATCC protocol. Cells 1×10^5 in 0.1 ml/well were plated in 96-well culture plates (Costar) and incubated with a different dilution of betulinol derivatives for 24, 48, and 72 hours. Ten μl of 3-[4,5-dimethylthiazol-2-yl]-2,5 diphenyl tetrazolium bromide was added into each well at the end of each incubation period. The reaction product, formazan, was dissolved in the detergent, and the absorbance was read at 540 nm (Ref).

[2] = system: human prostate cancer DU-145 cell line; experiment: MTT cytotoxicity assay, DU-145; assay type: cell-based; conditions: for Percent Killed: Prostate (1); for Growth Inhibition %: 1 × 10^−5
Description: as §2

PC-3 = experiment: Anchorage-independence growth assay in soft agar, PC-3; assay type: cell-based; conditions: Homo sapiens, 336 h, 1 × 10^−5 M, 14 days, read-out: Inhibition % on Anchorage-independent Growth
Description: as §1

[3] = Solubilization in PBS containing human γ-globulin, human albumin and ethanol; conditions: for Observation: 1 × 10^−3 mol/L
Text: Human γ-Globulin and human albumin are two major biocompatible components in human serum.

[4] = system: human prostate cancer PC-3 cell line; experiment: MTT cytotoxicity assay, PC-3; assay type: cell-based; conditions: for Percent Killed: Prostate (1); for Growth Inhibition %: 1 × 10^−5
Description: as §2

[5] = system: human prostate cancer LNCaP cell line; experiment: MTT cytotoxicity assay, LNCaP; assay type: cell-based; conditions: for Percent Killed / inhibition at 100 µM / inhibition at 10 µM / inhibition at 1 µM / Growth Inhibition %: LNCaP; for Percent Killed: Prostate (1); for inhibition at 100 µM / inhibition at 10 µM / inhibition at 1 µM: Homo sapiens, read-out: Growth Inhibition %; for inhibition at 1 µM: 1 × 10^−6 M; for Growth Inhibition %: 1 × 10^−5 (Table 12)
Description: as §2
However, these compounds were not tested on prostate cancer LNCaP cell line by NCI. […] The anti-tumor activity of the compounds was determined at three doses and the total growth inhibition kill effect as pertinent of the control at 24, 48, and 72 hours as presented in Table 11.

LNCaP = experiment: Anchorage-independence growth assay in soft agar, LNCaP; assay type: cell-based; conditions: Homo sapiens, 336 h, 1 × 10^−5 M, 14 days, read-out: Inhibition % on Anchorage-independent Growth
Description: as §1

[6] = Solubility in DMSO diluted with culture medium (GC); conditions: for State of solution: 0.5 mg/mL (1 × 10^−3 mol/L), culture medium
Description: The residue was dissolved in chloroform analyzed on GC.
Ethyl ether was then evaporated. […] Concentration of drug in the above solutions was analyzed by GC and determined from the standard solubility curve.

LNCaP xenografts = assay type: in vivo, athymic mice
Description: All the animal studies were performed according to the guidelines and approval of the Institutional Animal Care and Use Committee and Research Animal Resource Center of Weill Medical College of Cornell University, New York. Twelve mice of 13 weeks of age were purchased from The National Cancer Institute (NCI) and were housed in a pathogen-free environment under controlled conditions of light and humidity and with free access to food and water. LNCaP cells were grown in RPMI-1640 with 10% FBS until 80-90% confluent. Cells were scraped into PBS and collected by centrifugation. The LNCaP cell pellets were suspended in Matrigel (Ref) at 2.5×10^7 cells/ml. Mice were injected subcutaneously (“s.c.”) with 200 μl (5×10^6 cells) of the cell suspension at one site on the flank. Visible tumor grew after 7-8 days following implantation and mice were divided into three groups of four mice each.
Mice received s.c. injection daily for ten days. […] Tumors were measured daily with calipers, and tumor volumes were calculated by the formula: π/6(1×w×h). Animals were also weighed daily and monitored for general health status and vital signs of possible toxicity due to treatment. At the end of the treatment period, the animals were sacrificed and tumors were excised, weighed and prepared for immunohistochemical and histological studies. […]

Bladder cancer cells = conditions: 1 × 10^−4 M; Bladder (1), cell line not given

Compound: C=C(C)C1CCC2(C(=O)O)CC[C@]3(C)[C@H](CC[C@@H]4[C@@]5(C)CCC(=O)C(C)(C)[C@@H]5CC[C@]43C)C12 (some centres unmarked) [Compound 4, Betulonic Acid]
- Percent Killed (184B5/HER): Toxic
- inhibition at 10 µM (DU-145): 12.5%
- Percent Killed ([1]; 1 × 10^−4 M): No effect
- Percent Killed ([1]; 1 × 10^−5 M): No effect
- Growth Inhibition % ([1]; 24 hours): 0%
- Growth Inhibition % ([1]; 48 hours): 0%
- Percent Killed ([2]; 1 × 10^−4 M): 54%
- Percent Killed ([2]; 1 × 10^−5 M): 51%
- Growth Inhibition % ([2]; 24 hours): 33%
- Growth Inhibition % ([2]; 48 hours): 51%
- inhibition at 10 µM (PC-3): 26.1%
- Observation ([3]; ethanol 220 μL, γ-globulin PBS 1.48 mL, albumin PBS 0.49 mL): Cloudy
- Observation ([3]; ethanol 280 μL, γ-globulin PBS 0 mL, albumin PBS 2.50 mL): Complete
- Observation ([3]; ethanol 280 μL, γ-globulin PBS 2.50 mL, albumin PBS 0 mL): Suspension
- Observation ([3]; ethanol 308 μL, γ-globulin PBS 0.69 mL, albumin PBS 2.07 mL): Almost Clear
- Observation ([3]; ethanol 330 μL, γ-globulin PBS 1.48 mL, albumin PBS 1.48 mL): Little Cloudy
- Observation ([3]; ethanol 352 μL, γ-globulin PBS 0.32 mL, albumin PBS 2.85 mL): Clear
- concentration completely dissolved ([3]; PBS containing 4% human albumin, final concentration of 10% ethanol): 1×10^−3 mol per liter
- concentration completely dissolved ([3]; human albumin PBS solution with 10% ethanol): 0.001 mol/L
- Percent Killed ([4]; 1 × 10^−4 M): 54%
- Percent Killed ([4]; 1 × 10^−5 M): 41%
- Growth Inhibition % ([4]; 24 hours): 9.7%
- Growth Inhibition % ([4]; 48 hours): 41.1%
- Percent Killed ([5]; 1 × 10^−4 M): 81%
- Percent Killed ([5]; 1 × 10^−5 M): 75%
- inhibition at 100 µM ([5]; 24 h, 24 hours, 1 × 10^−4 M): 70.4 ± 19.1%
- inhibition at 10 µM ([5]; 24 h, 24 hours, 1 × 10^−5 M): 24.2 ± 10.8%
- inhibition at 1 µM ([5]; 24 h, 24 hours): 9.2 ± 6.1%
- inhibition at 100 µM ([5]; 48 h, 48 hours, 1 × 10^−4 M): 81 ± 12.6%
- inhibition at 10 µM ([5]; 48 h, 48 hours, 1 × 10^−5 M): 69.5 ± 20.2%
- inhibition at 1 µM ([5]; 48 h, 48 hours): 27.8 ± 11.4%
- inhibition at 100 µM ([5]; 72 h, 72 hours, 1 × 10^−4 M): 80.8 ± 15.8%
- inhibition at 10 µM ([5]; 72 h, 72 hours, 1 × 10^−5 M): 88.4 ± 7.96%
- inhibition at 1 µM ([5]; 72 h, 72 hours): 45 ± 12.3%
- Growth Inhibition % ([5]; 24 hours): 38 ± 8%
- Growth Inhibition % ([5]; 48 hours): 75 ± 9%
- kill effects on LNCaP cell growth compared to the other compounds ([5]; MTT assay, compounds 1-8): highest kill effects
- inhibition at 10 µM (LNCaP): 0%
- State of solution ([6]; 3% DMSO in total Vol.): Suspension
- State of solution ([6]; 9% DMSO in total Vol.): Suspension
- State of solution ([6]; 14% DMSO in total Vol.): Cloudy
- State of solution ([6]; 20% DMSO in total Vol.): clear solution
- State of solution ([6]; 20% DMSO in total Vol., listed as BA): Clear
- amount dissolved out of 3 mg ([6]; 1% DMSO in culture medium containing 10% FBS, nominal 1×10^−3 mol/L): 0.4 mg
- health status and vital signs of the mice during treatment (LNCaP xenografts; mouse, in vivo): no adverse effects on vital signs
- increase of tumor volume on day 10 compared to day 1 (LNCaP xenografts; s.c. daily for ten days, 20 mg/kg, LNCaP xenografts in athymic mice): 20.3%
- Percent Killed (Bladder cancer cells): 37%
